This is an account of results in patent US4461906A, “Pyrrolidine 2-one derivatives” (Hoffmann-La Roche Inc., priority 1979, dated 1984).

This data set can be described thus: Acute toxicity, single oral administration to mice. The settings on record: mouse, in vivo, p.o.
By LD50 is commonly meant the dose expected to kill half of the subjects tested. Take `COc1ccc(C(=O)N2CCC(O)C2=O)cc1` (racemic) [A]: the LD50 is above 5000 mg/kg.
The value for `COc1ccc(C(=O)N2CC(O)CC2=O)cc1` (racemic) [C, (R,S)-1-(p-Methoxybenzoyl)-4-hydroxy-2-pyrrolidinone] was 2000 to 4000 mg/kg; that for `COc1ccc(C(=O)N2CCCC2=O)cc1O` [B, 1-(3-Hydroxy-4-methoxybenzoyl)-2-pyrrolidinone] was 1250 to 2500 mg/kg.
